Reference: a melting point compilation (Tetko et al.)

Structure (SMILES) | melting point
O=C(Cl)c1cc(Br)cc2c1OCC2 | 126 to 127 °C
CCC(C)C1(CC)C(=O)NC(=S)NC1=O (stereo not drawn) | 169 °C
Cc1cc(/C=C/c2ccccc2N)c([N+](=O)[O-])cc1[N+](=O)[O-] | 175 °C
C#CC1(O)CC[C@@]2(C)C(CC[C@@H]3[C@@H]2CC[C@@]2(C)[C@H]3CC[C@]2(O)C#C)C1 (stereo partly drawn) | 147 °C
Cc1ccccc1NC(=N)NC(=N)N | 144 °C
COc1cc(C)cc(OC)c1C=O | 93 °C
c1ccc(-c2ccncc2)cc1 | 77.5 °C
CC=Cc1cc2c(c(=O)o1)C(=O)C(O)C(C)O2 (stereo not drawn) | 222 °C
O=C(O)c1cc(O)ccc1[N+](=O)[O-] | 170 °C
O=C(CCCN1CCC(n2c(=O)[nH]c3ccccc32)CC1)c1ccc(F)cc1 | 170 °C
FC(F)(F)c1cc(Cl)c2c(Cl)cc(Cl)cc2n1 | 111 to 114 °C
O=c1cc[nH]c(=O)o1 | 156 °C
O=C(O)C=Cc1cccc(OC(F)(F)F)c1 | 93 to 96 °C
CC1(c2ccccc2)CC(C(=NO)c2cc3cc(Br)ccc3o2)C1 (stereo not drawn) | 134 to 135 °C
COc1cccc(C2C(C(=O)OC(C)C)=C(C)NC(C)=C2C(=O)OC(C)C)c1OC | 141 °C
COC(CCNC1=CC(=O)c2ccccc2C1=O)OC | 114 °C
NC(=NO)c1cccc(C(F)(F)F)c1 | 82 to 88 °C
COCc1cc(O)nc(SC)n1 | 195 to 196 °C
CC(C)C1CC(=O)CC(=O)C1 | 80 °C
CC(=O)NC1=NC(=O)C(=Cc2cc(=O)c3ccccc3o2)N1C | 244 to 246 °C
CN[C@@H](Cc1c[nH]c2ccccc12)C(=O)O | 295 °C
C[Si](C)(C)C#CC#C[Si](C)(C)C | 112 °C
O=c1cc(-c2ccccc2)oc2cc(O)ccc12 | 246 °C
CC(=O)/C(=N\Nc1cccc([N+](=O)[O-])c1)C(=O)C(F)(F)F | 205 to 206 °C
CC(=O)Nc1ccc(F)cc1[N+](=O)[O-] | 70 to 73 °C
NC(=O)NC1NC(=O)NC1=O (stereo not drawn) | 238 °C

Structure (SMILES) | melting point
C=C(C)CN(CC)c1c([N+](=O)[O-])cc(C(F)(F)F)cc1[N+](=O)[O-] | 55.5 °C
Clc1ccc2nc(N3CCCNCC3)sc2c1 | 103 to 105 °C
O=C1/C(=N\Nc2cc(-c3ccccc3)n[nH]2)C(C(F)(F)F)=NN1c1ccccc1 | 280 °C
CCCCCCCCC(=O)OC(=O)CCCCCCCC | 14.8 °C
CCCC(C)(COC(N)=O)COC(N)=O | 104 °C
O=C(O)C1CCC(C(F)(F)F)CC1 (stereo not drawn) | 63 to 65 °C
O=C1c2ccccc2S(=O)(=O)N1Cl | 148 to 151 °C
Cc1ccc(C(=O)CC#N)cc1 | 102 °C
CCCCNC(=O)COC(=O)c1ccccc1 | 69.5 °C
O=C(NC(=O)c1c(F)cccc1F)Nc1ccc(Oc2ccc(C(F)(F)F)cc2Cl)cc1F | 167 °C
O=C(O)C(F)(F)C(F)(F)C(F)(F)C(F)(F)C(F)(F)C(F)(F)F | 31 to 36 °C
CCOc1cc(C(C)(C)C)ccc1C1COC(c2c(F)cccc2F)=N1 (stereo not drawn) | 102 °C
OCCCCCCCCCCCl | 12.5 °C
C#CC1(O)CCC2C3CCC4CCCCC4(C)C3CCC21C (stereo not drawn) | 155 °C
O=C(O)c1cccc(-n2ccnc2)c1 | 194 to 199 °C
O=C(NC(Cc1ccsc1)C(=O)O)OCC1c2ccccc2-c2ccccc21 (stereo not drawn) | 188 °C
O=C(NC(c1ccccc1)C(O)C(=O)O)c1ccccc1 (stereo not drawn) | 170 °C
CC(C)NC(=O)C(C)C | 103 to 104 °C
CC12NC(Cc3ccccc31)c1ccccc12 (stereo not drawn) | 68.8 °C
FC(F)(F)c1cc(Cl)c2cc(Cl)ccc2n1 | 104 to 107 °C
COc1ccc(OC)c(N=C=O)c1 | 40 °C
CC(=O)Oc1c(-c2ccccc2)[nH]c2cc3c(cc12)C(=O)C(c1ccccc1)=[N+]3[O-] | 246 °C
CNc1ccccc1C(=O)O | 180 °C
Cc1ccc(C)c2c1C(=O)N(C)C2O (stereo not drawn) | 163 °C
COc1cc2cc[nH]c2cc1OC | 157 °C
Cc1oc(-c2ccccc2)nc1CCl | 83 to 84 °C

Structure (SMILES) | melting point
CC(C)(C)N(NC(=O)c1ccccc1)C(=O)c1cc(F)c(F)c(F)c1F | 158 °C
O=C(O)c1ccnc(N2CCCCC2)c1 | 167 to 168 °C
CC(=O)Nc1ccc(C(=O)C2CCNCC2)cc1 | 171 to 173 °C
NCCCNCCNCCCN | -1.5 °C
CC(=O)C=C(C)N1CCCC1 | 114 to 116 °C
Cc1ccccc1C(C)(C)C | -50 °C
COc1ccc(CN2CCc3ccccc3C2)cc1O | 129 °C
O=C(CNc1ccc(NCC(=O)c2ccccc2)cc1)c1ccccc1 | 151 °C
CN1CCN(C2=Nc3ccccc3Oc3ccc(Cl)cc32)CC1 | 110 °C
O=Cc1sc(-c2ccccc2)nc1-c1ccccc1 | 121 to 123 °C
c1cc(N2CCCC2)ccn1 | 56 °C
CCCCC(C(N)=O)n1nnc2ccccc21 (stereo not drawn) | 118 °C
COc1c(Cl)c(C)c2c(c1Cl)OC(=O)c1c(C)c(Cl)c(O)c(Cl)c1O2 | 232 °C
CC(=O)OC1CC2C(C)C(=O)C3(C(O)CC4C(C)(C)CCCC4(CO)C13)C2O (stereo not drawn) | 120 °C
OC12CCCCC1c1ccccc12 (stereo not drawn) | 112 °C
Nc1ccccc1N1CCOCC1 | 98 to 99 °C
S=C=Nc1ccccc1N=C=S | 56 to 58 °C
Cc1n[nH]c(C)c1C | 137 to 139 °C
CCCCCCCCN(C)C | -57 °C
CN(C)CCN(C)C | -55 °C
CC(=O)c1ccc(N2CCCC2)cc1 | 129 °C
Ic1ccc(OCc2ccccc2)cc1 | 62 °C
CC(=O)c1ccc(F)cc1O | 31.5 °C
O=C(CBr)c1cccc(F)c1 | 34 to 35 °C
OC(c1ccccc1)(c1ccccc1)[C@H]1CCCN1 | 77 to 81 °C

Continued, values first:

melting point | Structure (SMILES)
155 °C | CCOC=Nc1c(C#N)cnn1-c1ncnc2c1cnn2C
124 °C | COc1ccc(C23C(=C(c4ccccc4)c4ccccc4)C4CC2C3(C)C4(C)C)cc1 (stereo not drawn)
125 °C | CC(C)(Sc1cc(C(C)(C)C)c(O)c(C(C)(C)C)c1)Sc1cc(C(C)(C)C)c(O)c(C(C)(C)C)c1
84 to 86 °C | COC(=O)c1c(C)noc1-c1cc(C)on1
134 °C | ON=Cc1cccc2c(Br)cccc12
139 °C | CCOC(O)=C1C=NC2=C(CNN2C)C1=O
165 °C | O=C(CO)[C@@H](O)[C@H](O)[C@@H](O)CO
220 °C | NS(=O)(=O)c1cccc(Cl)c1Cl
> 170 °C | Cc1cc2cc3cc(C)[nH]c3cc2[nH]1
207 °C | Cc1c(Cl)cccc1Nc1ccccc1C(=O)O
56 to 57 °C | O=C1CCCCCN1Cc1ccccc1
196 to 204 °C | CC(C)(C)OC(=O)N1CCN(Cc2ccc(C(=O)O)cc2)CC1
130 °C | CCCCCCNC(=O)COC(=O)c1ccccc1
301 °C | C[N+](C)(C)CC(=O)[O-]
161 to 163 °C | Cn1ncc(C=O)c1N
186 °C | O=Cc1ccccc1/C=C/c1ccc([N+](=O)[O-])cc1[N+](=O)[O-]
70 °C | CC(C)(C)OC(=O)N1CC(C#N)C1
-10 °C | NC1CC1
-20 °C | CCCCCCCCCC(=O)OCC
29 to 31 °C | FC(F)(F)c1cc(Cl)c(I)c(Br)c1
163 to 166 °C | O=C(O)C=Cc1cccc(Cl)c1
152 to 153 °C | O=C(c1ccccc1)c1cnc2ccccn2c1=O
32 °C | Cc1cc(O)ccc1F
130 to 132 °C | Cc1csc(C(=O)NN)c1Cl
275 to 277 °C | Cc1cc2c(c(=O)n1Cc1ccccc1)C(c1ccccc1)C(C#N)=C(N)O2 (stereo not drawn)
71.5 °C | Cc1ccc([N+](=O)[O-])c2ccccc12

melting point | Structure (SMILES)
445 °C | O=C1c2c(Br)c(Br)c(Br)c(Br)c2C(=O)N1CCN1C(=O)c2c(Br)c(Br)c(Br)c(Br)c2C1=O
164 °C | CC12CCC(CC/C1=N\O)C2(C)C (stereo not drawn)
259 to 261 °C | CC(=O)NC1=NC(=O)C(=Cc2coc3ccc(Br)cc3c2=O)N1C
75 to 76 °C | Cc1cc(C)c(CC(O)c2cc3ccccc3o2)c(C)c1 (stereo not drawn)
170 °C | CC1OC(Oc2c(-c3ccc(O)c(O)c3)oc3cc(O)cc(O)c3c2=O)C(O)C(O)C1O (stereo not drawn)
248 to 249 °C | O=C(O)c1cn2nc(Cl)ccc2n1
132 °C | O=S1(=O)CCOCC1
108 °C | CC(C)(C)NSc1nc2ccccc2s1
242 °C | CC1=NNC(=O)C1=Cc1c(O)c2cccc(C)c2[nH]c1=O
146 °C | c1cc2c3c(cccc3c1)-c1nccnc1-2
65 °C | CC(O)(C(=O)c1ccccc1)c1ccccc1 (stereo not drawn)
181 to 183 °C | COc1cc(C(F)(F)F)nc2ccc(C)c([N+](=O)[O-])c12
110 °C | CC(C)(C)OC(=O)C1(S(=O)(=O)c2ccc(Cl)cc2)CC1
122 to 124 °C | O=[N+]([O-])c1ccc(Oc2ccc(N=C=S)cc2)cc1
204 to 205 °C | Cc1[nH]c2ccccc2c1C=O
68 °C | CC(=O)c1ccc(C2CCCCC2)cc1
185 to 189 °C | O=C1c2ccccc2C(=O)N1Cl
198 to 205 °C | Nc1cc(C(=O)O)ccc1O
72 °C | CCOC(=O)c1cc(C)n(-c2cc(C)n(C)n2)n1
36 °C | COc1ccc2sc(C)nc2c1
90 to 93 °C | N#Cc1c([N+](=O)[O-])ccc(Cl)c1Cl
28 °C | COC(=O)c1c(Cl)cccc1Cl
10 °C | CCCCCCC(=O)CCCCC
225 °C | Brc1ccc(-c2c(Br)c(Br)c(Br)c(Br)c2Br)c(Br)c1Br
190 °C | N#CC(c1ccc(Sc2ccccc2)nn1)c1c(Cl)cccc1Cl (stereo not drawn)
